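Five concentrations, 48 hours, 96-well plates. The concentration for 50% growth inhibition is given as GI50.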 Calls of active or inactive are those of the source. No stated cut-off is given here; in the data, active = GI50 up to about 1.1 µM and inactive = higher.
Key:
Experiment in all cases: NCI-60 cell line screen, 48 h
UO-31 = system: UO-31
OVCAR-3 = system: OVCAR-3
A498 = system: A498
SNB-75 = system: SNB-75
NCI-H23 = system: NCI-H23
HOP-92 = system: HOP-92
MOLT-4 = system: MOLT-4
NCI/ADR-RES = system: NCI/ADR-RES
SW-620 = system: SW-620
IGROV-1 = system: IGROV-1
DMS-273 = system: DMS-273
OVCAR-8 = system: OVCAR-8
EKVX = system: EKVX
MCF7 = system: MCF7
Malme-3M = system: Malme-3M
HOP-62 = system: HOP-62
CCRF-CEM = system: CCRF-CEM
DLD-1 = system: DLD-1
UACC-62 = system: UACC-62
KM12 = system: KM12
SF-268 = system: SF-268
U-251 = system: U-251
OVCAR-5 = system: OVCAR-5
UACC-257 = system: UACC-257
RPMI-8226 = system: RPMI-8226
K562 = system: K562
HT-29 = system: HT-29
A549 = system: A549
HOP-18 = system: HOP-18
SN12C = system: SN12C
SNB-78 = system: SNB-78
LOX IMVI = system: LOX IMVI
DMS-114 = system: DMS-114
COLO 205 = system: COLO 205
NCI-H460 = system: NCI-H460
SF-539 = system: SF-539
RXF 393 = system: RXF 393
XF498 = system: XF498
M19-MEL = system: M19-MEL
HCT-116 = system: HCT-116
OVCAR-4 = system: OVCAR-4
NCI-H522 = system: NCI-H522
SF-295 = system: SF-295
SK-OV-3 = system: SK-OV-3
HL-60 = system: HL-60
SK-MEL-5 = system: SK-MEL-5
KM-20L2 = system: KM-20L2
NCI-H226 = system: NCI-H226
SK-MEL-28 = system: SK-MEL-28
HCT-15 = system: HCT-15
HCC 2998 = system: HCC 2998
SK-MEL-2 = system: SK-MEL-2

SMILES: CN(C)CCNCc1c2ccccc2c(CNCCN(C)C)c2ccccc12
- GI50 (UO-31): > 100 µM (inactive)
- GI50 (OVCAR-3): 37.5 µM (inactive)
- GI50 (A498): 27.1 µM (inactive)
- GI50 (SNB-75): 43.6 µM (inactive)
- GI50 (NCI-H23): 36 µM (inactive)
- GI50 (HOP-92): 10.4 µM (inactive)
- GI50 (MOLT-4): 2.2 µM (inactive)
- GI50 (NCI/ADR-RES): > 100 µM (inactive)
- GI50 (SW-620): 18 µM (inactive)
- GI50 (IGROV-1): 26.6 µM (inactive)
- GI50 (DMS-273): 34 µM (inactive)
- GI50 (OVCAR-8): 31.6 µM (inactive)
- GI50 (EKVX): 65.8 µM (inactive)
- GI50 (MCF7): 26 µM (inactive)
- GI50 (Malme-3M): 18.4 µM (inactive)
- GI50 (HOP-62): 18 µM (inactive)
- GI50 (CCRF-CEM): 20.8 µM (inactive)
- GI50 (DLD-1): 29.4 µM (inactive)
- GI50 (UACC-62): 26.1 µM (inactive)
- GI50 (KM12): 39.4 µM (inactive)
- GI50 (SF-268): 27 µM (inactive)
- GI50 (U-251): 20.9 µM (inactive)
- GI50 (OVCAR-5): 17.1 µM (inactive)
- GI50 (UACC-257): 18 µM (inactive)
- GI50 (RPMI-8226): 31 µM (inactive)
- GI50 (K562): 17.8 µM (inactive)
- GI50 (HT-29): 14 µM (inactive)
- GI50 (A549): 23.1 µM (inactive)
- GI50 (HOP-18): 44.4 µM (inactive)
- GI50 (SN12C): 38.9 µM (inactive)
- GI50 (SNB-78): 41.8 µM (inactive)
- GI50 (LOX IMVI): 18.1 µM (inactive)
- GI50 (DMS-114): 26 µM (inactive)
- GI50 (COLO 205): 9.53 µM (inactive)
- GI50 (NCI-H460): 27 µM (inactive)
- GI50 (SF-539): 28.2 µM (inactive)
- GI50 (RXF 393): 20.6 µM (inactive)
- GI50 (XF498): 58.2 µM (inactive)
- GI50 (M19-MEL): 24.5 µM (inactive)
- GI50 (HCT-116): 16.5 µM (inactive)
- GI50 (OVCAR-4): 28.3 µM (inactive)
- GI50 (NCI-H522): 31 µM (inactive)
- GI50 (SF-295): 49.2 µM (inactive)
- GI50 (SK-OV-3): 16.9 µM (inactive)
- GI50 (HL-60): 20.5 µM (inactive)
- GI50 (SK-MEL-5): 12.8 µM (inactive)
- GI50 (KM-20L2): 7.29 µM (inactive)
- GI50 (NCI-H226): 19.5 µM (inactive)
- GI50 (SK-MEL-28): 63.8 µM (inactive)
- GI50 (HCT-15): 41.1 µM
- GI50 (HCC 2998): 10.7 µM (inactive)
- GI50 (SK-MEL-2): 22.4 µM (inactive)

Reference: ChEMBL document CHEMBL1201862, “PubChem BioAssay data set” (2004)
